Source: US20260217706A1, “HETEROCYCLIC COMPOUNDS, PREPARATION METHOD THEREFOR AND USE THEREOF” (GUANGZHOU YUFAN NANTU BIOTECHNOLOGIES CO., LTD, priority 2023, published 2026)

What was measured:
[1] = test system: anti-CD3 activated human PBMCs; assay: Effect of compounds on the level of IL-2 secretion by anti-CD3 activated human PBMCs (IL-2 ELISA); type: cell-based; conditions: compound concentration at which fold change in IL-2 = 5; hPBMCs, CD3 antibody 2 μg/mL, 48 h, compound from 3 μM
Method: 2. Inoculate the resuspended cells into a 96-well cell culture plate at 200 ul/well of cell suspension, and incubate in a 37° C. cell incubator for 1 h;
3. Adjust the compound concentration with DMSO, starting at a final concentration of 3 μM, and perform a 3-fold dilution sequentially for 10 concentration gradients, with an additional DMSO control well set up; and
4. Adjust the CD3 antibody to an appropriate concentration to achieve a final concentration of 2 μg/mL, mix thoroughly, and incubate in a 37° C. cell incubator for 48h.
5. After 48 h, centrifuge at 1500 rpm for 5 min to collect the supernatant of the culture medium for the human IL-2 ELISA test.
The OD values obtained from the ELISA test are converted into the fold change (FC) in IL-2 concentration. […] The EC50 is calculated using GraphPad Prism. When the fold change=5, the corresponding compound concentration is CFC=5 (in nM).

CBL-B protein = CBL-B protein (Homo sapiens, UniProt Q13191); assay: CBL-B binding experiment (Streptavidin-Tb cryptate / Ligand L1 displacement); conditions: 8 nM CBL-B protein, 25° C., 60 minutes; Ki=Relative IC50/2
In short: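 Compounds in a 10-point DMSO series met 8 nM CBL-B protein in HEPES pH 7.5/NaCl/Triton/TCEP/BSA buffer at 25° C. for 60 min. A further 60 min at room temperature preceded the luminescence read, normalised to no-protein and DMSO wells. Ki was taken as relative IC50 divided by 2.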

CBL-B protein, sequence (Q13191 whole entry): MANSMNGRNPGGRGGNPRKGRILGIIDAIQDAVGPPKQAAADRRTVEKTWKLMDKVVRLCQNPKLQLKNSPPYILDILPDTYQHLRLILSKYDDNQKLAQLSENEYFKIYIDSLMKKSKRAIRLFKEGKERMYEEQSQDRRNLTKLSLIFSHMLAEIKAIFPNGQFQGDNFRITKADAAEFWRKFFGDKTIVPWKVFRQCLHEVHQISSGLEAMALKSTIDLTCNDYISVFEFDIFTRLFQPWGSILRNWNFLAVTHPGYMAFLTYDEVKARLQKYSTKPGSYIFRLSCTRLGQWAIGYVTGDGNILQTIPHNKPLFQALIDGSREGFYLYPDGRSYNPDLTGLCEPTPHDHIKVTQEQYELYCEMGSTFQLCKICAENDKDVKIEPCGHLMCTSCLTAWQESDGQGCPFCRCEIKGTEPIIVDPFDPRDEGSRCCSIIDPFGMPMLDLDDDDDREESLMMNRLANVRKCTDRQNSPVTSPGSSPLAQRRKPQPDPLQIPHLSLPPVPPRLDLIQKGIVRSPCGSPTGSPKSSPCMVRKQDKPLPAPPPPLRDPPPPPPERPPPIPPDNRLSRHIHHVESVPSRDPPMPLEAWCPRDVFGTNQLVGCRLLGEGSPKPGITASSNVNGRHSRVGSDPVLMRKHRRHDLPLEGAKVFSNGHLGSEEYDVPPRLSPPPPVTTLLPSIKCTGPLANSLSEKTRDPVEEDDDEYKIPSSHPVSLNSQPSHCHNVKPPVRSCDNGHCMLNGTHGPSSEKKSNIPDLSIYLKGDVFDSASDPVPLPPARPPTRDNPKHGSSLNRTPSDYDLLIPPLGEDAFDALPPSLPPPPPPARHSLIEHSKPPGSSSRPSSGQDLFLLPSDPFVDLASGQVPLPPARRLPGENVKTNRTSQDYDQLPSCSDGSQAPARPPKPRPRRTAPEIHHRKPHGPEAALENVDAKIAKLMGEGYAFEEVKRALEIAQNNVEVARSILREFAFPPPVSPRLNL

Compound | Ki (CBL-B protein) | IL-2 CFC=5/nM [1]
C[C@H]1CCCN(Cc2cc3c(C(F)(F)F)cn(-c4cccc([C@]5(c6nncn6C)C[C@H](C#N)C5)c4)c(=O)c3[nH]2)C1 [Compound T136, (1S,3r)-3-(4-methyl-4H-1,2,4-triazol-3-yl)-3-(3-(2-(((S)-3-methylpiperidin-1-yl)methyl)-7-oxo-4-(trifluoromethyl)-1,7-dihydro-6H-pyrrolo[2,3-c]pyridin-6-yl)phenyl)cyclobutane-1-carbonitrile] |  | <500 nM
CO[C@H]1C[C@](c2cccc(-n3cc(C(F)(F)F)c4cc(CN5CCC[C@H]6C[C@H]65)[nH]c4c3=O)c2)(c2nncn2C)C1 [Compound T185] |  | <500 nM
C[C@H]1CCCN(Cc2cc3c(C4CC4)cn(-c4cccc([C@]5(c6nncn6C)C[C@H](C)C5)c4)c(=O)c3[nH]2)C1 [Compound T014, 4-cyclopropyl-6-(3-((1r,3S)-3-methyl-1-(4-methyl-4H-1,2,4-triazol-3-yl)cyclobutyl)phenyl)-2-(((S)-3-methylpiperidin-1-yl)methyl)-1,6-dihydro-7H-pyrrolo[2,3-c]pyridin-7-one] |  | <500 nM
C[C@H]1CCCN(Cc2cc3c(C4CC4)cn(-c4cccc([C@]5(c6nncn6C)C[C@@H](C)C5)c4)c(=O)c3[nH]2)C1 [Compound T011, 4-cyclopropyl-6-(3-((1s,3R)-3-methyl-1-(4-methyl-4H-1,2,4-triazol-3-yl)cyclobutyl)phenyl)-2-(((S)-3-methylpiperidin-1-yl)methyl)-1,6-dihydro-7H-pyrrolo[2,3-c]pyridin-7-one] |  | <500 nM
C[C@H]1CCCN(Cc2cc3c(C(F)(F)F)cn(-c4cccc([C@@H](c5nncn5C)C5CCC5)c4)c(=O)c3[nH]2)C1 [Compound T059, 6-(3-((S)-cyclobutyl (4-methyl-4H-1,2,4-triazol-3-yl)methyl)phenyl)-2-(((S)-3-methylpiperidin-1-yl)methyl)-4-(trifluoromethyl)-1,6-dihydro-7H-pyrrolo[2,3-c]pyridin-7-one] | < 50 nM | 
Cn1cnnc1C1(c2cccc(-n3cc(C(F)(F)F)c4cc(CN5CCC[C@](C)(O)C5)[nH]c4c3=O)c2)CCC1 [Compound T064, (S)-2-((3-hydroxy-3-methylpiperidin-1-yl)methyl)-6-(3-(1-(4-methyl-4H-1,2,4-triazol-3-yl)cyclobutyl)phenyl)-4-(trifluoromethyl)-1,6-dihydro-7H-pyrrolo[2,3-c]pyridin-7-one] | < 50 nM | 
Cn1cnnc1C1(c2cccc(-n3cc(C(F)(F)F)c4cc(CN5CC[C@@H](O)[C@@H](F)C5)[nH]c4c3=O)c2)CCC1 [Compound T072, 2-(((3 S,4R)-3-fluoro-4-hydroxypiperidin-1-yl)methyl)-6-(3-(1-(4-methyl-4H-1,2,4-triazol-3-yl)cyclobutyl)phenyl)-4-(trifluoromethyl)-1,6-dihydro-7H-pyrrolo[2,3-c]pyridin-7-one] | < 50 nM | 
Cn1cnnc1C1(c2cccc(-n3cc(C(F)(F)F)c4cc(CN5CCC6(CC5)CC6)[nH]c4c3=O)c2)CCC1 [Compound T051, 2-(6-azaspiro[2.5]octan-6-ylmethyl)-6-[3-[1-(4-methyl-1,2,4-triazol-3-yl)cyclobutyl]phenyl]-4-(trifluoromethyl)-1H-pyrrolo[2,3-c]pyridin-7-one] | < 50 nM | 
Cn1cnnc1C1(c2cccc(-n3cc(C(F)(F)F)c4cc(CN5CCC[C@@](C)(O)C5)[nH]c4c3=O)c2)CCC1 [Compound T065, 2-[[(3R)-3-hydroxy-3-methyl-1-piperidyl]methyl]-6-[3-[1-(4-methyl-1,2,4-triazol-3-yl)cyclobutyl]phenyl]-4-(trifluoromethyl)-1H-pyrrolo[2,3-c]pyridin-7-one] | < 50 nM | 
Cn1cnnc1C1(c2cccc(-n3cc(C(F)(F)F)c4cc(CN5CC[C@H](O)C5)[nH]c4c3=O)c2)CCC1 [Compound T016, 2-[[(3S)-3-hydroxypyrrolidin-1-yl]methyl]-6-[3-[1-(4-methyl-1,2,4-triazol-3-yl)cyclobutyl]phenyl]-4-(trifluoromethyl)-1H-pyrrolo[2,3-c]pyridin-7-one] | < 50 nM | 
Cn1cnnc1C1(c2cccc(-n3cc(C(F)(F)F)c4cc(CN5CCC[C@@H](O)C5)[nH]c4c3=O)c2)CCC1 [Compound T039, 2-[[(3R)-3-hydroxy-1-piperidyl]methyl]-6-[3-[1-(4-methyl-1,2,4-triazol-3-yl)cyclobutyl]phenyl]-4-(trifluoromethyl)-1H-pyrrolo[2,3-c]pyridin-7-one] | < 50 nM | 
C[C@@H]1CN(Cc2cc3c(C4CC4)cn(-c4cccc(C5(Cc6nncn6C)COC5)c4)c(=O)c3[nH]2)CCC1(F)F [Compound T078, (R)-4-cyclopropyl-2-((4,4-difluoro-3-methylpiperidin-1-yl)methyl)-6-(3-(3-((4-methyl-4H-1,2,4-triazol-3-yl)methyl)oxetan-3-yl)phenyl)-1,6-dihydro-7H-pyrrolo[2,3-c]pyridin-7-one] | < 50 nM | 

The next lines start with results.

Ki (CBL-B protein) | Compound | IL-2 CFC=5/nM [1]
< 50 nM | CO[C@@H]1CCN(Cc2cc3c(C(F)(F)F)cn(-c4cccc(C5(c6nncn6C)CCC5)c4)c(=O)c3[nH]2)C[C@@H]1F [Compound T107, 2-(((3S,4R)-3-fluoro-4-methoxypiperidin-1-yl)methyl)-6-(3-(1-(4-methyl-4H-1,2,4-triazol-3-yl)cyclobutyl)phenyl)-4-(trifluoromethyl)-1,6-dihydro-7H-pyrrolo[2,3-c]pyridin-7-one] | 
< 50 nM | C[C@H]1CCCN(Cc2cc3c(C(F)(F)F)cn(-c4cc(F)cc([C@]5(c6nncn6C)C[C@@H](C)C5)c4)c(=O)c3[nH]2)C1 [Compound T101, 6-(3-fluoro-5-((1s,3R)-3-methyl-1-(4-methyl-4H-1,2,4-triazol-3-yl)cyclobutyl)phenyl)-2-(((S)-3-methylpiperidin-1-yl)methyl)-4-(trifluoromethyl)-1,6-dihydro-7H-pyrrolo[2,3-c]pyridin-7-one] | 
< 50 nM | CCN(Cc1cc2c(C(F)(F)F)cn(-c3cccc([C@]4(c5nncn5C)C[C@H](OC)C4)c3)c(=O)c2[nH]1)CC(C)C [Compound T150, 2-((ethyl(isobutyl)amino)methyl)-6-(3-((1r,3r)-3-methoxy-1-(4-methyl-4H-1,2,4-triazol-3-yl)cyclobutyl)phenyl)-4-(trifluoromethyl)-1,6-dihydro-7H-pyrrolo[2,3-c]pyridin-7-one] | 
< 50 nM | Cn1cnnc1C1(c2cccc(-n3cc(C(F)(F)F)c4cc(CN5CCC6(CCOC6)CC5)[nH]c4c3=O)c2)CCC1 [Compound T125, 2-((2-oxa-8-azaspiro[4.5]decan-8-yl)methyl)-6-(3-(1-(4-methyl-4H-1,2,4-triazol-3-yl)cyclobutyl)phenyl)-4-(trifluoromethyl)-1,6-dihydro-7H-pyrrolo[2,3-c]pyridin-7-one] | 
< 50 nM | CCN(CC)Cc1cc2c(C(F)(F)F)cn(-c3cccc([C@]4(c5nncn5C)C[C@@H](OC)C4)c3)c(=O)c2[nH]1 [Compound T117, 2-((diethylamino)methyl)-6-(3-((1s,3s)-3-methoxy-1-(4-methyl-4H-1,2,4-triazol-3-yl)cyclobutyl)phenyl)-4-(trifluoromethyl)-1,6-dihydro-7H-pyrrolo[2,3-c]pyridin-7-one] | 
< 50 nM | CC(C)[C@@H]1CN(C)CCN1Cc1cc2c(C3CC3)cn(-c3cccc([C@]4(c5nncn5C)C[C@@H](C)C4)c3)c(=O)c2[nH]1 [Compound T095, 4-cyclopropyl-2-(((R)-2-isopropyl-4-methylpiperazin-1-yl)methyl)-6-(3-((1s,3S)-3-methyl-1-(4-methyl-4H-1,2,4-triazol-3-yl)cyclobutyl)phenyl)-1,6-dihydro-7H-pyrrolo[2,3-c]pyridin-7-one] | 
< 50 nM | C[C@@H]1CN(Cc2cc3c(C(F)(F)F)cn(-c4cccc([C@]5(c6nncn6C)C[C@@H](C)C5)c4)c(=O)c3[nH]2)CCN1C(=O)OC(C)(C)C [Compound T141, tert-butyl (2R)-2-methyl-4-[[6-[3-[3-methyl-1-(4-methyl-1,2,4-triazol-3-yl)cyclobutyl]phenyl]-7-oxo-4-(trifluoromethyl)-1H-pyrrolo[2,3-c]pyridin-2-yl]methyl]piperazine-1-carboxylate] | 
< 50 nM | COCC1(NCc2cc3c(C(F)(F)F)cn(-c4cccc([C@]5(c6nncn6C)C[C@@H](OC)C5)c4)c(=O)c3[nH]2)CC1 [Compound T100, 6-(3-((1s,3s)-3-methoxy-1-(4-methyl-4H-1,2,4-triazol-3-yl)cyclobutyl)phenyl)-2-(((1-(methoxymethyl)cyclopropyl)amino)methyl)-4-(trifluoromethyl)-1,6-dihydro-7H-pyrrolo[2,3-c]pyridin-7-one] | 
< 50 nM | C[C@H]1CN(Cc2cc3c(C(F)(F)F)cn(-c4cccc(C5(c6nncn6C)CCC5)c4)c(=O)c3[nH]2)CCC1(F)F [Compound T110, 2-[[(3S)-4,4-difluoro-3-methyl-1-piperidyl]methyl]-6-[3-[1-(4-methyl-1,2,4-triazol-3-yl)cyclobutyl]phenyl]-4-(trifluoromethyl)-1H-pyrrolo[2,3-c]pyridin-7-one] | 
